From patent US20070135457A1, “Pyrido[2,3-d]pyrimidine-2,4-diamines as pde2 inhibitors” (Pfizer Inc., priority 2003, published 2007) come the findings set out here.

For orientation: melting point means the temperature, or range, at which the solid turns liquid.

Data set [1] addresses T1, PDE 2 enzyme isolated from human platelets (Homo sapiens, UniProt O00408).
T1 construct: PDE 2 enzyme was isolated from human platelets; from tissue; host or cells: human platelets (pooled blood from multiple donors); HiTrap Q anion-exchange fraction eluting at about 325 mM NaCl
As to the kind of experiment: PDE 2 enzyme scintillation proximity assay (SPA). It counts as biochemical. The method, then:
PDE 2 enzyme was isolated from human platelets with approximately 1.4 L of blood from multiple donors used to make the platelet pellets. Platelets were resuspended in approximately 75 mL of lysis buffer [20 mM Tris pH 7.2, 5 mM MgCl2, 250 mM Sucrose, 1 mM DTT, 1 μL/2 mL Sigma Protease inhibitor #8340; Sigma-Aldrich; St. Louis, Mo.] and lysed by sonication at 4° C., with 3 rounds of 1 min bursts then spun at 4° C. overnight at 100,000×g. Cleared lysates were loaded to AKTA Explorer FPLC (Amersham Biosciences; Piscataway, N.J.) in a series of three chromatographic separations, with an average load volume of 25 mL. A 5 mL HiTrap Q anion exchange column (Amersham Biosciences) was used. […] Two major cGMP activity fractions (PDE 5 and PDE 2) were isolated and pooled separately. The PDE 2-pooled fraction total was approximately 40 mL which was dispensed in cryovials of 200 μl/vial and placed in storage at −80° C.
The inhibitory activity of the compounds of formula (I) on recombinant or isolated PDE 2, and other PDE's, was determined using the […] scintillation proximity assay (SPA) kits from Amersham International (Little Chalfont, England). The SPA assays were performed using 96 well plates. The PDE SPA yttrium silicate beads (Amersham Biosciences) bind preferentially to the linear nucleotide, GMP, compared to the cyclic nucleotide, cGMP. ^3H-cGMP was added to the reaction and when the product, ^3H-GMP, was in […] to the beads, the scintillant within the bead was excited, which was detected using a Packard scintillation counter (Perkin-Elmer Life Sciences; Boston, Mass.). The enzyme concentration used was in the linear range and the Km of the enzyme was determined (15 uM). The final substrate concentration was <1/3 of Km (1 μM) so that IC50 values would approximate the Ki values. The assay was validated using literature compounds as controls before testing compounds. Then, PDE catalytic activity measurements obtained in the presence of the test compound, and those obtained in the absence of the test compound, were compared and the lC50 value is determined. […]
In general terms: In a scintillation proximity assay essentially only radioactivity close to the scintillant gives light.

[2] abbreviates: SPA, 1 μM substrate, read-out: PDE 2 Inhibition.

Where two headings read alike, the source gives them in different places.

T1 sequence (O00408 whole entry): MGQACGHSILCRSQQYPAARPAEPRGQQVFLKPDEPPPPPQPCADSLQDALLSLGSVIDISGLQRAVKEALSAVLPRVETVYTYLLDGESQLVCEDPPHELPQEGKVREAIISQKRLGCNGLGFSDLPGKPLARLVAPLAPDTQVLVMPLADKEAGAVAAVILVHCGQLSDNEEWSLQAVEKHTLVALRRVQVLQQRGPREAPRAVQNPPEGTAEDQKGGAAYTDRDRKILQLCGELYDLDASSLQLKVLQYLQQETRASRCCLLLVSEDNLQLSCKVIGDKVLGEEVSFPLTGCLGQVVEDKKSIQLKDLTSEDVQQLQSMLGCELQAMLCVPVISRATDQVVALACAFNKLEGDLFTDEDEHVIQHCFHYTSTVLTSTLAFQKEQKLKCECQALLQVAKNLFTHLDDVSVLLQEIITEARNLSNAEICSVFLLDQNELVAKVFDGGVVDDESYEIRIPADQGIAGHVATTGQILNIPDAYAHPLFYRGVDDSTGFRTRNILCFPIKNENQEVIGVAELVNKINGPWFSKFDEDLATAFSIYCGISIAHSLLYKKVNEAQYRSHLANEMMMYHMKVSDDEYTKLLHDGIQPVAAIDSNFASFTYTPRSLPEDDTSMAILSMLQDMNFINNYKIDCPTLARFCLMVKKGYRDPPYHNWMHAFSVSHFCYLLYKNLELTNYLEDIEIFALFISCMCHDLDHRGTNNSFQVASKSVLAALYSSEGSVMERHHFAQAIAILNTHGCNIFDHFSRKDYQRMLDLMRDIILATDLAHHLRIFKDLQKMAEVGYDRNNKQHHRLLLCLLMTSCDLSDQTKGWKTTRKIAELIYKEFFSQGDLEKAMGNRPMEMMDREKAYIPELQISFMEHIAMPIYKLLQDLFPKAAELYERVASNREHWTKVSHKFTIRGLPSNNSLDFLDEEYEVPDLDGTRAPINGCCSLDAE

Regarding `COc1ccc(CNc2nc(NCCCc3cccc(C4(C)OCCO4)c3)nc3ncccc23)cc1OC` [Example 28, N^4-(3,4-Dimethoxy-benzyl)-N^2-{3-[3-(2-methyl-[1,3]-dioxolan-2-yl)-phenyl]-propyl}-pyrido[2,3-d]pyrimidine-2,4-diamine], the IC50 in data set [1] (setting [2]) is 0.25 to 1 µM.

In the case of `COc1cc(CNc2nc(NCc3ccc(C(C)(C)O)cc3)nc3ncccc23)cc(OC)c1` [Example 11, 2-(4-{[4-(3,5-Dimethoxy-benzylamino)-pyrido[2,3-d]pyrmidin-2-ylamino]-methyl}-phenyl)-propan-2-ol], the melting point lay within 105 to 109 °C. For the same compound, the IC50 in data set [1] (setting [2]) fell in the range of 0.25 to 1 µM.

With `COc1ccc(CCNc2nc(NCc3cc(OC)cc(OC)c3)c3cccnc3n2)cc1` [Example 6, N^4-(3,5-Dimethoxy-benzyl)-N^2-[2-(4-methoxy-phenyl)-ethyl]-pyrido[2,3-d]pyrimidine-2,4-diamine], the melting point is 88 to 89 °C. Also, the IC50 in data set [1] (setting [2]) is 0.25 to 1 µM.

Take `COc1cc(CNc2nc(NCCc3ccccn3)nc3ncccc23)cc(OC)c1` [Example 1, N^4-(3,5-Dimethoxy-benzyl)-N^2-(2-pyridin-2-yl-ethyl)-pyrido[2,3-d]pyrimidine-2,4-diamine]: the melting point fell in the range of 157 to 158 °C. For the same compound, the IC50 in data set [1] (setting [2]) lay within 0.05 to 0.25 µM.

Compound `COc1cc(CCNc2nc(NCc3cc(OC)cc(OC)c3)c3cccnc3n2)cc(OC)c1` [Example 13, N^4-(3,5-Dimethoxy-benzyl)-N^2-[2-(3,5-dimethoxy-phenyl)-ethyl]-pyrido[2,3-d]pyrimidine-2,4-diamine] showed a melting point of 95 to 100 °C. Moreover, the IC50 in data set [1] (setting [2]) fell in the range of 0.05 to 0.25 µM.

In turn, `COc1ccc(CNc2nc(NCCCc3ccc(C(O)C(F)(F)F)cc3)nc3ncccc23)cc1OC` (centres unmarked) [Example 25, 1-(4-{3-[4-(3,4-Dimethoxy-benzylamino)-pyrido[2,3-d]pyrimidin-2-ylamino]-propyl}-phenyl)-2,2,2-trifluoro-ethanol] gave a melting point of 222 to 224 °C. Besides, in data set [1] (setting [2]), the IC50 fell in the range of 0.05 to 0.25 µM.

For the compound `CCOc1cc(CNc2nc(NCCCc3ccc(C(C)(C)O)cc3)nc3ncccc23)ccc1OC` [Example 35, 2-(4-{3-[4-(3-Ethoxy-4-methoxy-benzylamino)-pyrido[2,3-d]pyrimidin-2-ylamino]-propyl}-phenyl)-propan-2-ol], the melting point was in the range of 150 to 152 °C. Further, in data set [1] (setting [2]), the IC50 was in the range of 0.25 to 1 µM.

`COc1cc(CNc2nc(NCCc3ccccc3)nc3ncccc23)cc(OC)c1` [Example 12, N^4-(3,5-Dimethoxy-benzyl)-N^2-2-phenethyl-pyrido[2,3-d]pyrimidine-2,4-diamine] showed a melting point of 112 to 114 °C. In addition, the IC50 in data set [1] (setting [2]) lay in the range of 0.05 to 0.25 µM.

As for `COc1ccc(CNc2nc(NCCCc3ccc(C(C)=O)cc3)nc3ncccc23)cc1OC` [Example 24, 1-(4-{3-[4-(3,4-Dimethoxy-benzylamino)-pyrido[2,3-d]pyrimidin-2-ylamino]-propyl}-phenyl)-ethanone], the melting point lay in the range of 184 to 185 °C. Moreover, in data set [1] (setting [2]), the IC50 was 0.25 to 1 µM.

`COc1ccc(CNc2nc(NCCCc3ccc(C(=O)C(F)(F)F)cc3)nc3ncccc23)cc1OC` [Example 36, 1-(4-{3-[4-(3,4-Dimethoxy-benzylamino)-pyrido[2,3-d]pyrimidin-2-ylamino]-propyl}-phenyl)-2,2,2-trifluoro-ethanone] yielded a melting point of 198 to 200 °C. Also, the IC50 in data set [1] (setting [2]) lay within 0.25 to 1 µM.

The compound `COc1ccc(CNc2nc(NCCc3ccccc3F)nc3ncccc23)cc1OC` [Example 15, N^4-(3,4-Dimethoxy-benzyl)-N^2-[2-(2-fluoro-phenyl)-ethyl]-pyrido[2,3-d]pyrimidine-2,4-diamine] returned a melting point of 220 to 222 °C. Also, the IC50 in data set [1] (setting [2]) was 0.05 to 0.25 µM.

In the case of `COc1cc(CNc2nc(NCCCc3ccc(C(C)(C)O)cc3)nc3ncccc23)cc(OC)c1` [Example 22, 2-(4-{3-[4-(3,5-Dimethoxy-benzylamino)-pyrido[2,3-d]pyrimidin-2-ylamino]-propyl}-phenyl)-propan-2-ol], the melting point fell in the range of 70 to 75 °C. The IC50 in data set [1] (setting [2]) lay within 0.05 to 0.25 µM.

In turn, `COc1ccc(CNc2nc(NCc3ccccc3C(F)(F)F)nc3ncccc23)cc1OC` [Example 20, N^4-(3,4-Dimethoxy-benzyl)-N^2-(2-trifluoromethyl-benzyl)-pyrido[2,3-d]pyrimidine-2,4-diamine] registered a melting point of 227 to 228 °C. For the same compound, the IC50 in data set [1] (setting [2]) lay within 0.25 to 1 µM.

`COc1cc(CNc2nc(NCc3ccccc3)nc3ncccc23)cc(OC)c1` [Example 9, N^2-Benzyl-N^4-(3,5-dimethoxy-benzyl)-pyrido[2,3-d]pyrimidine-2,4-diamine] yielded a melting point of 84 to 85 °C. Further, in data set [1] (setting [2]), the IC50 was 0.25 to 1 µM.

As to `COc1ccc(CNc2nc(NCCCc3ccc4ncsc4c3)nc3ncccc23)cc1OC` [Example 27, N^2-3-(Benzothiazol-6-yl-propyl)-N^4-(3,4-dimethoxy-benzyl)-pyrido[2,3d]pyrimidine-2,4-diamine], the melting point was 191 to 193 °C. The IC50 in data set [1] (setting [2]) fell in the range of 0.25 to 1 µM.

On to `COc1cc(CNc2nc(NCCCc3ccccc3)nc3ncccc23)cc(OC)c1` [Example 7, N^4-(3,5-Dimethoxy-benzyl)-N^2-(3-phenyl-propyl)-pyrido[2,3-d]pyrimidine-2,4-diamine], for which the IC50 in data set [1] (setting [2]) is 0.05 to 0.25 µM.

As for `CCCCCCC(C(C)O)n1cnc2c(N)ncnc21` (stereo not drawn) [EHNA, erythro-9-(2-hydroxy-3-nonyl)adenine, reference compound], in data set [1] (PDE 2 isolated from human platelets, read-out: IC50), the IC50 worked out at 1.7 µM.

Consider `COc1ccc(CNc2nc(NCCc3ccc(F)cc3)nc3ncccc23)cc1OC` [Example 16, N^4-(3,4-Dimethoxy-benzyl)-N^2-[2-(4-fluoro-phenyl)-ethyl]-pyrido[2,3-d]pyrimidine-2,4-diamine], for which the melting point was 225 to 226 °C. The IC50 in data set [1] (setting [2]) is less than 0.05 µM.

In turn, `COc1ccc(CNc2nc(NCCc3cccc(F)c3)nc3ncccc23)cc1OC` [Example 14, N^4-(3,4-Dimethoxy-benzyl)-N^2-[2-(3-fluoro-phenyl)-ethyl]-pyrido[2,3-d]pyrimidine-2,4-diamine] returned a melting point of 227 to 228 °C. Besides, the IC50 in data set [1] (setting [2]) is 0.05 to 0.25 µM.

Consider `COc1cc(CNc2nc(NCCCc3ccncc3)nc3ncccc23)cc(OC)c1` [Example 31, N^4-(3,5-Dimethoxy-benzyl)-N^2-(3-pyridin-4-yl-propyl)-pyrido[2,3d]pyrimidine-2,4-diamine], for which, in data set [1] (setting [2]), the IC50 was 0.25 to 1 µM.

`COc1ccc(CNc2nc(NCCCCc3ccccc3)nc3ncccc23)cc1OC` [Example 18, N^4-(3,4-Dimethoxy-benzyl)-N^2-(4-phenyl-butyl)-pyrido[2,3-d]pyrimidine-2,4-diamine] came in with a melting point of 194 to 195 °C. Further, in data set [1] (setting [2]), the IC50 lay in the range of 0.05 to 0.25 µM.

For `COc1cc(CNc2nc(NCc3cc(OC)cc(OC)c3)c3cccnc3n2)cc(OC)c1` [Example 5, N^2-N^4-Bis-(3,5-dimethoxy-benzyl)-pyrido[2,3-d]pyrimidine-2,4-diamine], the melting point lay within 159 to 160 °C. For the same compound, the IC50 in data set [1] (setting [2]) is less than 0.05 µM.

Turning to `COc1cc(CNc2nc(NCCOc3ccccc3)nc3ncccc23)cc(OC)c1` [Example 33, N^4-(3,5-Dimethoxy-benzyl)-N^2-(3-phenoxy-ethyl)-pyrido[2,3-d]pyrimidine-2,4-diamine], the melting point lay within 165 to 167 °C. Moreover, the IC50 in data set [1] (setting [2]) fell in the range of 0.05 to 0.25 µM.

`COc1ccc(CNc2nc(NCCCc3cccc(C(C)=O)c3)nc3ncccc23)cc1OC` [Example 37, 1-(3-{3-[4-(3,4-Dimethoxy-benzylamino)-pyrido[2,3-d]pyrimidin-2-ylamino]-propyl}-phenyl)-ethanone] had a melting point of 152 to 155 °C. Further, in data set [1] (setting [2]), the IC50 lay within 0.25 to 1 µM.

Compound `COc1cc(CNc2nc(NCc3cccnc3)nc3ncccc23)cc(OC)c1` [Example 4, N^4-(3,5-Dimethoxy-benzyl)-N^2-2-pyridin-3-ylmethyl-pyrido[2,3-d]pyrimidine-2,4-diamine] showed a melting point of 222 to 223 °C. Besides, the IC50 in data set [1] (setting [2]) was in the range of 0.25 to 1 µM.

Compound `COc1ccc(CNc2nc(NCCOc3ccccc3)nc3ncccc23)cc1OC` [Example 19, N^4-(3,4-Dimethoxy-benzyl)-N^2-(2-phenoxy-ethyl)-pyrido[2,3-d]pyrimidine-2,4-diamine] showed a melting point of 227 to 228 °C. The IC50 in data set [1] (setting [2]) was in the range of 0.05 to 0.25 µM.

Turning to `COc1ccc(CNc2nc(NCCCc3ccc4nonc4c3)nc3ncccc23)cc1OC` [Example 26, N^2-3-(Benzo[1,2,5]oxadiazol-5-yl-propyl)-N^4-(3,4-dimethoxy-benzyl)-pyrido[2,3-d]pyrrimidine-2,4-diamine], the melting point fell in the range of 191 to 193 °C. Moreover, the IC50 in data set [1] (setting [2]) was 0.25 to 1 µM.
